Tests used:
[1] = test system: cellular retinoic acid binding protein (CRABP); conditions: cited from earlier work
[2] = test system: hADSC; test: Chemical reprogramming of hADSC per Example 6A, OCT4-positive hCiPSC clones; type: cell-based, human
Experimental: In short, hADSC or hASF are seeded at 1×10^4 cells/well in a 12-well plate, or at 0.5-0.6×10^4 cells/well in a 24-well plate, and cultured overnight. The next day, the medium is replaced with Stage I induction medium (Knockout DMEM supplemented with 2% B27 supplement, 1% KSR, 1% GlutaMAX, 1% NEAA, 1% penicillin-streptomycin, […] Vc2p, 5 mM LiCl, 1 mM NAM, 20 ng/mL BMP4, 5 μM CHIR999021, 10 μM 616452, 2 μM TTNPB, 0.5 μM SAG, 2 μM EPZ5676, 0.05 μM DZNep, 1 μM ruxolitinib, 0.5 μM VTP50469, 1 μM HY-10249A (CAS No. 842148-40-7), 0.2 μM JNKIN8, and 0.2 μM SETD2-IN-1), and cultured under hypoxic conditions (5% 02) until a monolayer of epithelial-like cells appears and reaches approximately 100% confluence. hADSC cells typically require 8-10 days, and hASFs typically require 9-16 days. […]
OCT4 immunofluorescent staining is performed on the obtained hCiPSC clones, with OCT4 positivity serving as an indicator of hCiPSC clones. The reprogramming efficiency of the method is calculated by dividing the number of OCT4-positive clones by the number of initial hADSC or hASFs plated. […]

SMILES: CC(C)(C)c1cc(C(=O)/C=C/c2ccc(C(=O)O)cc2)cc(C(C)(C)C)c1 [Ch 55, 4-[(1E)-3-[3,5-bis(1,1-Dimethylethyl)phenyl]-3-oxo-1-propenyl]benzoic acid]
- affinity for cellular retinoic acid binding protein (CRABP) [1]: low affinity

SMILES: CCc1c(C#N)c(SC(C(N)=O)c2ccccc2)nc(N2CCC(N)CC2)c1C#N (stereo not drawn) [GSK3685032]
- transformation into pluripotent stem cells vs control ([2]; 6+4+8, added to Stage II induction medium (RA 5 μM, GSK3685032 0.02 μM), FIG. 29): significantly improve the transformation of LIN28A-positive monolayer epithelial-like cells into pluripotent stem cells

SMILES: O=C(NNS(=O)(=O)c1ccccc1F)c1cc(F)cc(-c2ccccn2)c1 [WM1119]
- transformation efficiency ([2]; 8+4+8 culture method, HATi 0.5 μM in stage I induction medium, FIG. 27A): about 2.4%

Reference: US20250340848A1, “METHODS FOR CHEMICAL REPROGRAMMING AND PLURIPOTENT STEM CELLS” (Peking University, priority 2022, published 2025)
